Reference: ChEMBL document CHEMBL4138309, “Discovery of β-Adrenergic Receptors Blocker-Carbonic Anhydrase Inhibitor Hybrids for Multitargeted Antiglaucoma Therapy” (J Med Chem, 2018)
pKi: −log10 of the molar value. The source made the active and inactive calls. The calls are words filed in the database; no cut-off is given here.

Tests used:
[1] = target: Beta-1 adrenergic receptor (Homo sapiens, UniProt P08588); test: biochemical
[2] = target: Carbonic anhydrase 9 (Homo sapiens, UniProt Q16790)
[3] = target: Beta-2 adrenergic receptor (Homo sapiens, UniProt P07550); test: Displacement of [3H]-CGP12177 from human beta2 ADR expressed in HEK293T cell membrane after 90 mins by scintillation counting
[4] = test system: Oryctolagus cuniculus; test: Anti-glaucoma activity in hypertonic saline-induced hypertensive New Zealand albino rabbit model assessed as decrease in intraocular pressure at 1% instilled into eye vitreous measured at 60 mins post administration by pneumatonometric analysis relative to DRZ + timolol (1% + 0.25%); format: functional, organism-based
[5] = test system: Oryctolagus cuniculus; test: Anti-glaucoma activity in hypertonic saline-induced hypertensive New Zealand albino rabbit model assessed as decrease in intraocular pressure at 1% instilled into eye vitreous measured at 4 hrs post administration by pneumatonometric analysis; format: functional
[6] = test system: Oryctolagus cuniculus; test: Anti-glaucoma activity in hypertonic saline-induced hypertensive New Zealand albino rabbit model assessed as decrease in intraocular pressure at 0.25% instilled into eye vitreous measured at 4 hrs post administration by pneumatonometric analysis; format: functional, organism-based
[7] = test system: Oryctolagus cuniculus; test: Anti-glaucoma activity in hypertonic saline-induced hypertensive New Zealand albino rabbit model assessed as decrease in intraocular pressure at 0.25% instilled into eye vitreous measured at 2 hrs post administration by pneumatonometric analysis; format: functional
[8] = test system: Oryctolagus cuniculus; test: Anti-glaucoma activity in hypertonic saline-induced hypertensive New Zealand albino rabbit model assessed as decrease in intraocular pressure at 0.25% instilled into eye vitreous along with 1% DRZ measured at 4 hrs post administration by pneumatonometric analysis; format: functional, organism-based
[9] = test system: Oryctolagus cuniculus; test: Anti-glaucoma activity in hypertonic saline-induced hypertensive New Zealand albino rabbit model assessed as decrease in intraocular pressure at 0.25% instilled into eye vitreous along with 1% DRZ measured at 2 hrs post administration by pneumatonometric analysis; format: functional
[10] = test system: Oryctolagus cuniculus; test: Anti-glaucoma activity in hypertonic saline-induced hypertensive New Zealand albino rabbit model assessed as decrease in intraocular pressure at 0.25% instilled into eye vitreous measured at 60 mins post administration by pneumatonometric analysis; format: functional

Chain of Beta-1 adrenergic receptor (P08588 whole entry): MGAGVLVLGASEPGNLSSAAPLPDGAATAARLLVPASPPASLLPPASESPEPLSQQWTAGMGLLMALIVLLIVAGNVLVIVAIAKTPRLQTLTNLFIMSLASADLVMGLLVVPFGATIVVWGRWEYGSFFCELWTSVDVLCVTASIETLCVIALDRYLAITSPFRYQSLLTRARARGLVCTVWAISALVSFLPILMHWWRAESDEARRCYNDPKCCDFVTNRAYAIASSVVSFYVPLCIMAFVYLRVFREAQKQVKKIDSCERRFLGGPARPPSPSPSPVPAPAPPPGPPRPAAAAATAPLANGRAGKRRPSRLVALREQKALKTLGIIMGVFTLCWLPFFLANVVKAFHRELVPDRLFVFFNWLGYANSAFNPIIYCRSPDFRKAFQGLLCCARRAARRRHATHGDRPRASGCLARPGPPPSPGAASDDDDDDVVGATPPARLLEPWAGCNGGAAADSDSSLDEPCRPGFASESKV
Chain of Beta-2 adrenergic receptor (P07550 whole entry): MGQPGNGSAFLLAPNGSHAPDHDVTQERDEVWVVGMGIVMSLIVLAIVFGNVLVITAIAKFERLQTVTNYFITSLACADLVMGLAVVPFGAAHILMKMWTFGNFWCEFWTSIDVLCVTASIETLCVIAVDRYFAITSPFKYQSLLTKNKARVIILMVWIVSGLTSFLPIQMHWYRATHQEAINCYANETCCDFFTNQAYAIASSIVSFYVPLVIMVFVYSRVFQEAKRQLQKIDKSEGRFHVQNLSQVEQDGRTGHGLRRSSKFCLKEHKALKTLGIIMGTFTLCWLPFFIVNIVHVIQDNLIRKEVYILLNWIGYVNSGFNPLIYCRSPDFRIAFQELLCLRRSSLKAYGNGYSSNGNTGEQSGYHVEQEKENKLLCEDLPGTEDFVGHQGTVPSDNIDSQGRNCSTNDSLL

Row | pKi [1] | pKi [2] | pKi [3] | SMILES | further results
1 | < 4.00 | 7.27 | < 4.00 | CCC(C)NCC(O)COc1ccc(C(=O)NCCc2ccc(S(N)(=O)=O)cc2)cc1 (stereo unspecified) | –
2 | 4.98 | 7.32 | 4.50 | CNCC(O)COc1ccc(S(=O)(=O)NC(C)C)cc1.Cl (stereo unspecified) | Activity [4]: Active; Activity [5]: 3.25 - 3.67 mmHg
3 | < 4.00 | 7.13 | < 4.00 | NS(=O)(=O)c1ccc(CCNC(=O)c2ccc(OCC(O)CNCc3ccccc3)cc2)cc1 (stereo unspecified) | –
4 | 4.57 | 7.23 | 4.40 | CNCC(O)COc1ccc(S(=O)(=O)NCCc2ccccc2)cc1 (stereo unspecified) | Activity [4]: Active
5 | 5.18 | 7.07 | 4.55 | CNCC(O)COc1ccc(S(=O)(=O)NCCOc2ccccc2)cc1 (stereo unspecified) | –
6 | < 4.00 | 8.24 | < 4.00 | NS(=O)(=O)c1ccc(CCNC(=O)c2ccc(OCC(O)CNCCO)cc2)cc1 (stereo unspecified) | –
7 | < 4.00 | 7.08 | < 4.00 | CC(C)(C)NCC(O)COc1ccc(C(=O)NCCc2ccc(S(N)(=O)=O)cc2)cc1 (stereo unspecified) | –
8 | < 4.00 | 7.63 | < 4.00 | CNCC(O)COc1ccc(S(N)(=O)=O)cc1 (stereo unspecified) | –
9 | < 4.00 | 8.22 | < 4.00 | CC(C)N(CC(O)COc1ccc(C(=O)NCCc2ccc(S(N)(=O)=O)cc2)cc1)C(C)C (stereo unspecified) | –
10 | < 4.00 | 7.66 | < 4.00 | CCNCC(O)COc1ccc(C(=O)NCCc2ccc(S(N)(=O)=O)cc2)cc1 (stereo unspecified) | –
11 | – | – | – | CC(C)(C)NC[C@H](O)COc1nsnc1N1CCOCC1 [TIMOLOL] | Activity [6]: inactive; Activity [7]: 3.54 mmHg; Activity [8]: inactive; Activity [9]: 5 mmHg; Activity [10]: 5.73 mmHg
12 | < 4.00 | 7.21 | < 4.00 | CC(C)NCC(O)COc1ccc(C(=O)NCCc2ccc(S(N)(=O)=O)cc2)cc1 (stereo unspecified) | –
13 | 4.87 | 7.02 | 5.30 | CNCC(O)COc1ccc(S(=O)(=O)NC(C)(C)C)cc1.Cl (stereo unspecified) | Activity [4]: Active; Activity [5]: 3.25 - 3.67 mmHg
14 | 4.10 | 7.03 | < 4.00 | CNCC(O)COc1ccc(S(=O)(=O)NCc2ccccc2)cc1 (stereo unspecified) | –
15 | < 4.00 | 8.13 | < 4.00 | CCCNCC(O)COc1ccc(C(=O)NCCc2ccc(S(N)(=O)=O)cc2)cc1 (stereo unspecified) | –
16 | 4.81 | 6.97 | 4.52 | CNCC(O)COc1ccc(S(=O)(=O)NC(C)C(C)C)cc1 (stereo unspecified) | –
17 | < 4.00 | 6.90 | < 4.00 | CNCC(O)COc1ccc(S(=O)(=O)N2CCN(C)CC2)cc1 (stereo unspecified) | –
18 | < 4.00 | 8.77 | < 4.00 | CNCC(O)COc1ccc(C(=O)NCCc2ccc(S(N)(=O)=O)cc2)cc1 (stereo unspecified) | –
19 | < 4.00 | 8.15 | < 4.00 | Cl.NS(=O)(=O)c1ccc(CCNC(=O)c2ccc(OCC(O)CN3CCOCC3)cc2)cc1 (stereo unspecified) | Activity [4]: Active; Activity [5]: 3.25 - 3.67 mmHg
